We go through 15 molecules from ChEMBL document CHEMBL1142481, “Novel 5-HT(1A/1B/1D) receptors antagonists with potent 5-HT reuptake inhibitory activity” (Bioorg Med Chem Lett, 2008).

In data set [1] the target is T1, 5-hydroxytryptamine receptor 1A (Homo sapiens, UniProt P08908).
T1 sequence (P08908 whole entry): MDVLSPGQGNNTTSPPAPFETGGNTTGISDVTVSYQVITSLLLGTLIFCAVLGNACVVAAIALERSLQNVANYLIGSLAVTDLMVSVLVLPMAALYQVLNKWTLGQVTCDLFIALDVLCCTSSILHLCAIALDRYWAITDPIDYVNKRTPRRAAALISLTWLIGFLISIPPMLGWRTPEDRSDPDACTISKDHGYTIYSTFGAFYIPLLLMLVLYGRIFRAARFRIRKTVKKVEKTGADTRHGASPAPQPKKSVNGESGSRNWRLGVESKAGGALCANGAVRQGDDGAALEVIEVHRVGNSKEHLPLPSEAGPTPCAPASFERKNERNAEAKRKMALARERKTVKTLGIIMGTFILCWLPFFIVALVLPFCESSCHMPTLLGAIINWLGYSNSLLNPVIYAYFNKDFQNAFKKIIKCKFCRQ
The data set is described as follows: Displacement of [3H]5HT from human cloned 5HT1A receptor expressed in CHO cells. The data set is classed as cell-based.

For data set [2], the target named is T2, 5-hydroxytryptamine receptor 1B (Homo sapiens, UniProt P28222). Nature of the data set: Displacement of [3H]5HT from human cloned 5HT1B receptor expressed in CHO cells. The data set is classed as cell-based.
T2 sequence (P28222 whole entry): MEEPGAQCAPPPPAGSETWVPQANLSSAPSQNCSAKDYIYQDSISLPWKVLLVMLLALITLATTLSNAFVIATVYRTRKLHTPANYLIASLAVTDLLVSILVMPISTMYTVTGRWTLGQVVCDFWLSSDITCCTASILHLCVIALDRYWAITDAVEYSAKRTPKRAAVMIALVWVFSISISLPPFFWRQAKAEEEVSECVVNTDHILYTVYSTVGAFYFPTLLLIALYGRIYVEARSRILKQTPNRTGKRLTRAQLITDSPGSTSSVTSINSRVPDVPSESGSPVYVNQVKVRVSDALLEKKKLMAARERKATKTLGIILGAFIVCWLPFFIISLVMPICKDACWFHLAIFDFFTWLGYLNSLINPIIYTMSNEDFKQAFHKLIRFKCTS
In data set [3] the target is T3, 5-hydroxytryptamine receptor 1D (Homo sapiens, UniProt P28221). Nature of the data set: Displacement of [3H]5HT from human cloned 5HT1D receptor expressed in CHO cells. It counts as cell-based.
T3 sequence (P28221 whole entry): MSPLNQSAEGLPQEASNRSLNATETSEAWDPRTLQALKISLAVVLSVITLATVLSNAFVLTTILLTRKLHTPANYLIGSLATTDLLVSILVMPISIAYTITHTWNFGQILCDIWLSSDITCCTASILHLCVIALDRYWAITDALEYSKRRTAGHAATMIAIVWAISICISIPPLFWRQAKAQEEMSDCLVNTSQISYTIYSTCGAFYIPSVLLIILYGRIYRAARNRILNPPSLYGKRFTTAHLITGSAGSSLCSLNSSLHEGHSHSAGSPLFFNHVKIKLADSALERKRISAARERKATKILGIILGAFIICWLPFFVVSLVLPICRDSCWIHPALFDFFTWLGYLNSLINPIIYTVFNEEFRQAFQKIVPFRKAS
The target of data set [4] is Sodium-dependent serotonin transporter (Rattus norvegicus, UniProt P31652). Nature of the data set: Inhibition of [3H]5HT reuptake at SERT in rat cortical synaptosomes. The data set is classed as subcellular, Brain.
Sodium-dependent serotonin transporter, sequence (P31652 whole entry): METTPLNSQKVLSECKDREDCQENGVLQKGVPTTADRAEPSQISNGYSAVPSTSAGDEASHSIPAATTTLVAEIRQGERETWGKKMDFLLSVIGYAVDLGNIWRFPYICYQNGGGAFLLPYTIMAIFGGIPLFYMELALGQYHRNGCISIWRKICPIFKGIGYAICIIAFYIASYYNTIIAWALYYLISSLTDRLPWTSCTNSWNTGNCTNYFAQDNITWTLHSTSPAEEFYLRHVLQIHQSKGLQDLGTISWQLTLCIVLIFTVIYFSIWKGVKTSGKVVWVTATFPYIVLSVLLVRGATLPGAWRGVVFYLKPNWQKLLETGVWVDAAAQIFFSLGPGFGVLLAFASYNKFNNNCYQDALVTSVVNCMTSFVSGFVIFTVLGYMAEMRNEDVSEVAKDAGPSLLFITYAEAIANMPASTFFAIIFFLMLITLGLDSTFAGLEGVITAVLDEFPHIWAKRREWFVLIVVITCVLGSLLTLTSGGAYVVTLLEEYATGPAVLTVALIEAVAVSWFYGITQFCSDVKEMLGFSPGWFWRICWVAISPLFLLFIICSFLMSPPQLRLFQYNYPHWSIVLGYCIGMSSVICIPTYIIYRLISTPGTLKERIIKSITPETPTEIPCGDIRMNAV
For data set [5], the target named is T4, 5-hydroxytryptamine receptor 1A (Homo sapiens) (UniProt P08908).
T4 sequence (whole entry): T1 sequence (P08908 whole entry)
The data set is described as follows: Intrinsic activity at human cloned 5HT1A receptor expressed in CHO cells. The data set is classed as cell-based.

For data set [6], the target named is T2, 5-hydroxytryptamine receptor 1B. The data set is described as follows: Intrinsic activity at human cloned 5HT1B receptor expressed in CHO cells. The data set is classed as cell-based.
The target in data set [7] is T3, 5-hydroxytryptamine receptor 1D. Nature of the data set: Intrinsic activity at human cloned 5HT1D receptor expressed in CHO cells. It counts as cell-based.
Data set [8] in a line: Clearance in rat at 3 mg/kg, po. The data set is classed as ADME, organism-based. Further details: dose 3 mg/kg, route oral. As to conditions: in vivo.
A short description of data set [9]: Cmax in rat at 3 mg/kg, po. It counts as ADME, organism-based. Further details: dose 3 mg/kg, route oral. As to conditions: in vivo.
Data set [10] is described as follows: Oral bioavailability in rat at 3 mg/kg. The data set is classed as ADME, organism-based. As to conditions: in vivo.

Molecules are shown by their SMILES. A value given as a limit tells only on which side of the number the result lay.

In the case of `Cc1ccc2c(OCC(C)N3CCC(Cc4ccc5c(c4)NC(=O)CO5)CC3)cccc2n1` (single isomer, unassigned; enantiomer II), the Ki in data set [1] was 100 nM; in [2], 100 nM; in [3], 501 nM.

As for `Cc1ccc2c(OCCCN3CC(COc4ccc5c(c4)NC(=O)CO5)C3)cccc2n1`, the Ki in [1] was 79.4 nM; in [2], 316 nM; in data set [3], 158 nM.

Take `Cc1ccc2c(OC3CCN(CCc4ccc5c(c4)NC(=O)CO5)CC3)cccc2n1`: the Ki is 316 nM in data set [1], 25.1 nM in data set [2], 6.31 nM in data set [3] and 100 nM in data set [4].

Consider `Cc1ccc2c(OCCN3CC(COc4ccc5c(c4)NC(=O)CO5)C3)cccc2n1`, for which the Ki in data set [1] was 50.1 nM; in [2] it was 50.1 nM; in [3], 7.94 nM; in [4] it was 63.1 nM. Further, the results for the Intrinsic activity in data set [5], in data set [6] and in [7] were 0.3, 0.5 and 0.5, respectively.

With `Cc1ccc2c(OC3CCN(Cc4ccc5c(c4)NC(=O)CO5)CC3)cccc2n1`, the Ki in data set [1] is over 10000 nM; in [2], over 2510 nM; in data set [3], 1260 nM; in data set [4] it was 200 nM.

On to `Cc1ccc2c(N3CCN(CCCc4ccc5c(c4)NC(=O)CO5)CC3)cccc2n1`, for which, in data set [5], the Intrinsic activity stood at 0.

On to `Cc1ccc2c(OCC3CCN(CC(=O)c4ccc5c(c4)NC(=O)CO5)CC3)cccc2n1`, for which the Ki was 501 nM in data set [1], 631 nM in data set [2], 251 nM in data set [3] and 794 nM in data set [4].

In the case of `Cc1ccc2c(OC(C)CN3CCC(Cc4ccc5c(c4)NC(=O)CO5)CC3)cccc2n1` (racemic), the Ki in data set [1] was 398 nM; in data set [2], 200 nM; in data set [3], 79.4 nM; in data set [4] it was 251 nM.

Turning to `Cc1ccc2c(N3CCN(CCc4ccc5c(c4)NC(=O)CO5)CC3)cccc2n1`, the Intrinsic activity stood at 0.2 in data set [5] and 0.1 in data set [6]. For the same molecule, in [8], the CL/F came to 7 mL/min/kg. Further, the peak level in data set [9] (Cmax) was 360 ng/mL. The molecule further had a bioavailability in [10] of 72%.

For `Cc1ccc2c(OCC(C)N3CCC(Cc4ccc5c(c4)NC(=O)CO5)CC3)cccc2n1` (single isomer, unassigned; enantiomer I), the figures for the Ki in data set [1], in data set [2] and in data set [3] were 50.1 nM, 39.8 nM and 251 nM, respectively.

Consider `Cc1ccc2c(OCCN3CCC(Cc4ccc5c(c4)NC(=O)CO5)CC3)cccc2n1`, for which the Intrinsic activity in data set [5] turned out to be 0.1; in [6] it was 0.5; in [7], 0.5.

In [1], `Cc1ccc2c(OCC3CCN(Cc4ccc5c(c4)NC(=O)CO5)CC3)cccc2n1` gave a Ki of over 1580 nM.

`Cc1ccc2c(OCCCN3CC(Oc4ccc5c(c4)NC(=O)CO5)C3)cccc2n1` gave a Ki in data set [1] of 158 nM.

For `Cc1ccc2c(N3CCN(Cc4ccc5c(c4)NC(=O)CO5)CC3)cccc2n1`, the Ki in data set [1] was 631 nM; in [2], over 10000 nM; in data set [3], 126 nM; in [4], 794 nM.

As for `Cc1ccc2c(OC3CCN(CC(=O)c4ccc5c(c4)NC(=O)CO5)CC3)cccc2n1`, the Ki in data set [1] was over 10000 nM; in [2] it was over 5010 nM; in data set [3], 2000 nM.
